Laboratory results taken from ChEMBL document CHEMBL1141527, “Design, synthesis, and thrombin-inhibitory activity of pyridin-2-ones as P2/P3 core motifs” (Bioorg Med Chem Lett, 2008).

Tests used:
Prothrombin = Prothrombin (Homo sapiens, UniProt P00734); assay: Inhibition of thrombin
[1] = Inhibition of trypsin
[2] = Selectivity ratio of IC50 for trypsin to IC50 for thrombin

Row | SMILES | IC50 (Prothrombin) | IC50 [1] | Ratio IC50 [2]
1 | Cc1ccnc(CNC(=O)Cc2c(C)ccn(NCCc3cc(Cl)ccc3F)c2=O)c1F | > 44400 nM | – | –
2 | COc1ccc(S(=O)(=O)Nn2ccc(C)c(CC(=O)NCc3ccc(N)nc3)c2=O)c(OC)c1 | > 44400 nM | > 4400 nM | –
3 | Cc1ccn(NS(=O)(=O)c2ccccc2)c(=O)c1CC(=O)NCc1ccc(C(=N)N)cc1 | 2470 nM | 5770 nM | 2.3
4 | Cc1ccc(C)c(CCNn2ccc(C)c(CC(=O)NCc3ccc(C(=N)N)cc3)c2=O)c1 | – | 2140 nM | 23
5 | Cc1ccnc(CNC(=O)Cc2c(C)ccn(NS(=O)(=O)c3ccccc3S(C)(=O)=O)c2=O)c1F | > 44400 nM | – | –
6 | CCCc1ccc(S(=O)(=O)Nn2ccc(C)c(CC(=O)NCc3nccc(C)c3F)c2=O)cc1 | > 44400 nM | – | –
7 | Cc1ccnc(CNC(=O)Cc2c(C)ccn(NS(=O)(=O)c3c(C)cccc3Cl)c2=O)c1F | > 44400 nM | > 44400 nM | –
8 | CCc1ccc(S(=O)(=O)Nn2ccc(C)c(CC(=O)NCc3ccnc(N)c3)c2=O)cc1 | > 44400 nM | – | –
9 | Cc1ccn(NCS(=O)(=O)c2ccc(Cl)cc2)c(=O)c1CC(=O)NCc1ccnc(N)c1 | > 44400 nM | – | –
10 | Cc1ccn(/N=C/Cc2cccc(C(F)(F)F)c2)c(=O)c1CC(=O)NCc1ccc(N)nc1 | 2710 nM | > 44400 nM | > 16
11 | Cc1ccccc1CCNn1ccc(C)c(CC(=O)NCc2ccc(C(=N)N)cc2)c1=O | 23 nM | 963 nM | 42
12 | Cc1cc(-c2ccc(S(=O)(=O)Nn3ccc(C)c(CC(=O)NCc4ccc(N)nc4)c3=O)cc2)c(C)s1 | > 44400 nM | – | –

Other lines, results leading:

Row | IC50 (Prothrombin) | IC50 [1] | Ratio IC50 [2] | SMILES
13 | 1240 nM | 17100 nM | 14 | Cc1ccn(NS(=O)(=O)c2cccc3ccccc23)c(=O)c1CC(=O)NCc1ccc(C(=N)N)cc1
14 | 1180 nM | 2020 nM | 1.7 | COc1cc(C)ccc1S(=O)(=O)Nn1ccc(C)c(CC(=O)NCc2ccc(C(=N)N)cc2)c1=O
15 | 1920 nM | 15200 nM | 7.9 | Cc1ccn(NS(=O)(=O)Cc2ccccc2)c(=O)c1CC(=O)NCc1ccc(C(=N)N)cc1
16 | 578 nM | 7130 nM | 12 | Cc1ccc(C)c(S(=O)(=O)Nn2ccc(C)c(CC(=O)NCc3ccc(C(=N)N)cc3)c2=O)c1
17 | 1850 nM | 3410 nM | 1.8 | COc1ccc(S(=O)(=O)Nn2ccc(C)c(CC(=O)NCc3ccc(C(=N)N)cc3)c2=O)cc1
18 | 1050 nM | 15600 nM | 15 | COc1cccc(S(=O)(=O)Nn2ccc(C)c(CC(=O)NCc3ccc(C(=N)N)cc3)c2=O)c1
19 | 91 nM | 1420 nM | 16 | Cc1ccn(NCCc2ccccc2)c(=O)c1CC(=O)NCc1ccc(C(=N)N)cc1
20 | 307 nM | 4130 nM | 13 | COc1cc(Cl)ccc1S(=O)(=O)Nn1ccc(C)c(CC(=O)NCc2ccc(C(=N)N)cc2)c1=O
21 | 885 nM | 10300 nM | 12 | Cc1ccn(NS(=O)(=O)c2ccc(Cl)c(Cl)c2)c(=O)c1CC(=O)NCc1ccc(C(=N)N)cc1
